Experiments:
Assay type in all cases: in vivo
Plutella xylostella = assay: whole plant or invertebrate; conditions: in Brassica oleracea, 144 h
Procedure: (§1) A 10% emulsifiable concentrate of the compound of the present invention (depending on the type of the compound, a 10% wettable powder was subjected to the test) was diluted with water containing a spreader to prepare a drug solution in a concentration of 10 ppm. In this drug solution, a leaf of cabbage was immersed for about 10 seconds and was air-dried and then put into a petri dish. In the petri dish, five 2 instar larvae of Plutella xylostella per petri dish were released and the petri dish was capped and stored in a thermostatic room of 25° C. The number of killed larvae after 6 days was measured and the mortality was calculated from the following calculation formula: Mortality (%)=(number of killed insect/number of released insect)×100. Here, the test was carried out on the duplicate samples.

Spodoptera litura = assay: whole plant or invertebrate; conditions: in Brassica oleracea, 144 h
Procedure: as §1, with “Spodoptera litura” for “Plutella xylostella”, “same” for “following”, “formula as that in Test Example 1.” for “formula: Mortality (%)=(number of killed insect/number of released insect)×100.”

Liriomyza trifolii = assay: whole plant or invertebrate; conditions: in Phaseolus vulgaris, 144 h
Procedure: A 10% emulsifiable concentrate of the compound of the present invention (depending on the type of the compound, a 10% wettable powder was subjected to the test) was diluted with water containing a spreader to prepare a drug solution in a concentration of 500 ppm. In this drug solution, a leaf of kidney bean which was cut out to a diameter of 7 cm, on which Liriomyza trifolii laid eggs (10 eggs/leaf) was immersed for about 10 seconds and was air-dried and then laid on a wet filtration paper laid in a styrol cup having an inner diameter of 7 cm. The styrol cup was capped and stored in a thermostatic room of 25° C. The number of killed larvae after 6 days was measured and the mortality was calculated from the same calculation formula as that in Test Example 1. Here, the test was carried out on the duplicate samples.

Tetranychus urticae = assay: whole plant or invertebrate; conditions: in Phaseolus vulgaris, 144 h
Procedure: (§2) In a styrol cup having an inner diameter of 7 cm, a wet filtration paper was laid and on the paper, a leaf of kidney bean cut out so as to have the same diameter as the inner diameter of the cup was laid, followed by inoculating ten larvae of Tetranychus urticae per leaf with the leaf. A 10% emulsifiable concentrate of the compound of the present invention (depending on the type of the compound, a 10% wettable powder was subjected to the test) was diluted with water containing a spreader to prepare a drug solution in a concentration of 500 ppm. The drug solution was sprayed using a rotary spray tower in an amount of 2.5 mL per styrol cup, and the cup was capped and stored in a thermostatic room of 25° C. The number of killed larvae after 6 days was measured and the mortality was calculated from the same calculation formula as that in Test Example 1. Here, the test was carried out on the duplicate samples.

Homona magnanima = assay: Mortality Test for Homona magnanima; conditions: in Brassica oleracea, 144 h
Procedure: as §1, with “of 100” for “of 10”, “of Homona magnanima” for “of Plutella xylostella”, “the same” for “the following”, “calculation formula as that in Test Example 1.” for “calculation formula: Mortality (%)=(number of killed insect/number of released insect)×100.”

Myzus persicae = assay: whole plant or invertebrate; conditions: in Brassica oleracea, 144 h
Procedure: In a glass petri dish having an inner diameter of 3 cm, a wet absorbent cotton was laid and on the cotton, a leaf of cabbage cut out so as to have the same diameter as the inner diameter of the petri dish was laid, followed by releasing four apterous imagines of Myzus persicae on the leaf. After one day, a 10% emulsifiable concentrate of the compound of the present invention (depending on the type of the compound, a 10% wettable powder was subjected to the test) was diluted with water containing a spreader to prepare a drug solution in a concentration of 500 ppm. The drug solution was sprayed using a rotary spray tower (2.5 mg/cm^2), and the petri dish was capped and stored in a thermostatic room of 25° C. The number of killed imagines after 6 days was measured and the mortality was calculated from the same calculation formula as that in Test Example 1. Here, the test was carried out on the duplicate samples.

[1] = system: Frankliniella occidentalis; assay: whole plant or invertebrate; conditions: in Phaseolus vulgaris, 48 h
Procedure: as §2, with “ten 1 instar” for “ten”, “Frankliniella occidentalis” for “Tetranychus urticae”, “2” for “6”

Nilaparvata lugens = assay: whole plant or invertebrate; conditions: in Oryza sativa, 144 h
Procedure: A 10% emulsifiable concentrate of the compound of the present invention (depending on the type of the compound, a 10% wettable powder was subjected to the test) was diluted with water containing a spreader to prepare a drug solution in a concentration of 500 ppm. In this drug solution, a leaf sheath of rice was immersed for about 10 seconds and was air-dried and then put into a test tube. In the test tube, five 2 instar larvae of Nilaparvata lugens per test tube were released and the test tube was capped with a sponge and stored in a thermostatic room of 25° C. The number of killed larvae after 6 days was measured and the mortality was calculated from the same calculation formula as that in Test Example 1. Here, the test was carried out on the duplicate samples.

Helicoverpa armigera = assay: Mortality Test for Helicoverpa armigera (Comparative Test); conditions: in Brassica oleracea, 144 h
Procedure: 10% emulsifiable concentrates of the compound of the present invention and a comparative compound were diluted with water containing a spreader to prepare drug solutions in a predetermined concentration. In each of the drug solutions, a leaf of cabbage was immersed for about 10 seconds and was air-dried and put into a petri dish. In the petri dish, seven 3 instar larvae of Helicoverpa armigera per petri dish were released and the petri dish was capped with a lid having a pore and stored in a thermostat room of 25° C. After 2 days of the treatment, an artificial fertilizer (1 cm^3) was added into the petri dish. The number of killed larvae after 6 days was measured and the mortality was calculated from the calculation formula: Mortality (%)=(number of killed insect/number of released insect)×100. Here, the test was carried out on the duplicate samples.

Spodoptera exigua = assay: Mortality Test for Spodoptera exigua; conditions: in Brassica oleracea, 144 h
Procedure: A 10% emulsifiable concentrate of the compound of the present invention (depending on the type of the compound, a 10% wettable powder was subjected to the test) was diluted with water containing a spreader to prepare a drug solution in a concentration of 100 ppm. In this drug solution, a leaf of cabbage was immersed for about 10 seconds and was air-dried and then put into a petri dish. In the petri dish, five 2 instar larvae of Spodoptera exigua per petri dish were released and the petri dish was capped and stored in a thermostatic room of 25° C. The number of killed larvae after 6 days was measured and the mortality was calculated from the same calculation formula as that in Test Example 1. Here, the test was carried out on the duplicate samples.

SMILES	mortality at 100 ppm (Plutella xylostella) [%]	mortality at 100 ppm (Spodoptera litura) [%]	mortality at 500 ppm (Liriomyza trifolii) [%]	mortality at 100 ppm (Homona magnanima) [%]	mortality at 10 ppm (Plutella xylostella) [%]	mortality at 10 ppm (Spodoptera litura) [%]	mortality at 500 ppm [1] [%]	mortality at 500 ppm (Tetranychus urticae) [%]	mortality at 500 ppm (Myzus persicae) [%]	also measured
C[S+]([O-])C(C(=O)NCc1ccc(C2=NOC(c3cc(C(F)(F)F)cc(C(F)(F)F)c3)(C(F)(F)F)C2)cc1Cl)[S+](C)[O-] (stereo not drawn) [1-211, N-[4-[5-[3,5-bis(trifluoromethyl)phenyl]-5-trifluoromethyl-4,5-dihydroisoxazole-3-yl]-2-chlorophenyl]methyl-2,2-bis(methylsulfinyl)acetamide]	≥ 80	≥ 80	≥ 80							mortality at 100 ppm (Tetranychus urticae): ≥ 80%
COCSCC(=O)NCc1ccc(C2=NOC(c3cc(Cl)c(Cl)c(Cl)c3)(C(F)(F)F)C2)cc1Cl (stereo not drawn) [1-030, N-[2-chloro-4-[5-(3,4,5-trichlorophenyl)-5-trifluoromethyl-4,5-dihydroisoxazole-3-yl]phenyl]methyl-2-(methoxymethylthio)acetamide]	≥ 80	≥ 80								
CCSC(C(=O)NCc1ccc(C2=NOC(c3cc(C(F)(F)F)cc(C(F)(F)F)c3)(C(F)(F)F)C2)cc1Cl)[S+]([O-])CC (stereo not drawn) [1-220, N-[4-[5-[3,5-bis(trifluoromethyl)phenyl]-5-trifluoromethyl-4,5-dihydroisoxazole-3-yl]-2-chlorophenyl]methyl-2-ethylsulfinyl-2-(ethylthio)acetamide]	≥ 80	≥ 80	≥ 80	≥ 80						mortality at 100 ppm (Myzus persicae): ≥ 80%; mortality at 100 ppm (Tetranychus urticae): ≥ 80%
CCS(=N)(=O)CC(=O)NCc1ccc(C2=NOC(c3cc(C(F)(F)F)cc(C(F)(F)F)c3)(C(F)(F)F)C2)cc1Cl (stereo not drawn) [1-173, N-[2-chloro-4-[5-[3,5-bis(trifluoromethyl)phenyl]-5-trifluoromethyl-4,5-dihydroisoxazole-3-yl]phenyl]methyl-2-(ethylsulfonimidoyl)acetamide]			≥ 80		≥ 80	≥ 80	≥ 80	≥ 80		
O=C(CSCC(F)(F)F)NCc1ccc(C2=NOC(c3cc(Cl)c(Cl)c(Cl)c3)(C(F)(F)F)C2)cc1Cl (stereo not drawn) [1-029, N-[2-chloro-4-[5-(3,4,5-trichlorophenyl)-5-trifluoromethyl-4,5-dihydroisoxazole-3-yl]phenyl]methyl-2-(2,2,2-trifluoroethylthio)acetamide]				≥ 80	≥ 80	≥ 80	≥ 80	≥ 80	≥ 80	mortality at 500 ppm (Nilaparvata lugens): ≥ 80%
CSCC(=O)NCc1ccc(C2=NOC(c3cc(Cl)cc(Cl)c3)(C(F)(F)F)C2)cc1Cl (stereo not drawn) [Comparative compound A]										mortality at 1 ppm (Helicoverpa armigera): 0%; mortality at 3 ppm (Helicoverpa armigera): 57.1%; mortality at 10 ppm (Helicoverpa armigera): 92.9%; mortality at 33 ppm (Helicoverpa armigera): 100%
CCSC(C(=O)NCc1ccc(C2=NOC(c3cc(C(F)(F)F)cc(C(F)(F)F)c3)(C(F)(F)F)C2)cc1Cl)S(=O)(=O)CC (stereo not drawn) [1-225, N-[4-[5-[3,5-bis(trifluoromethyl)phenyl]-5-trifluoromethyl-4,5-dihydroisoxazole-3-yl]-2-chlorophenyl]methyl-2-ethylsulfonyl-2-(ethylthio)acetamide]	≥ 80	≥ 80						≥ 80	≥ 80	
CS(CC(=O)NCc1ccc(C2=NOC(c3cc(Cl)c(Cl)c(C(F)(F)F)c3)(C(F)(F)F)C2)cc1Br)=NC#N (stereo not drawn) [1-103, N-[2-bromo-4-[5-[3,4-dichloro-5-(trifluoromethyl)phenyl]-5-trifluoromethyl-4,5-dihydroisoxazole-3-yl]phenyl]methyl-2-[N-(cyano)methylsulfinimidoyl]acetamide]	≥ 80	≥ 80								
CSCC(=O)NC(C)c1ccc(C2=NOC(c3cc(C(F)(F)F)cc(C(F)(F)F)c3)(C(F)(F)F)C2)cc1 (stereo not drawn) [1-001, N-[1-[4-[5-[3,5-bis(trifluoromethyl)phenyl]-5-trifluoromethyl-4,5-dihydroisoxazole-3-yl]phenyl]ethyl]-2-(methylthio)acetamide]				≥ 80	≥ 80	≥ 80	≥ 80	≥ 80	≥ 80	mortality at 100 ppm (Spodoptera exigua): ≥ 80%; mortality at 500 ppm (Nilaparvata lugens): ≥ 80%

Source: patent publication US8318757B2, “Substituted isoxazoline compound and pest control agent” (Nissan Chemical Industries, Ltd., priority 2007, dated 2012)
